In patent publication US8957058B2, “Insecticidal pyrrolidin-yl-aryl-carboxamides” (Syngenta Participations AG, priority 2010, dated 2015):

Tests used:
Format in all cases: in vivo
[1] = test system: Heliothis virescens (Tobacco Budworm); test: Heliothis virescens egg test on artificial diet; details: for % Control at 12.5 ppm, Heliothis virescens / % Control at 200 ppm, Heliothis virescens: enantiomer comparison, 4 days incubation
Procedure: Heliothis virescens (Tobacco Budworm): Eggs (0-24 h old) were placed in 24-well microtiter plate on artificial diet and treated with test solutions at an application rate of 200 ppm (concentration in well 18 ppm) by pipetting. After an incubation period of 4 days, samples were checked for egg mortality, larval mortality, and growth regulation. Heliothis virescens (Tobacco Budworm): Eggs (0-24 h old) were placed in 24-well microtiter plate on artificial diet and treated with test solutions at an application rate starting at 200 ppm (concentration in well 18 ppm) by pipetting. After an incubation period of 4 days, samples were checked for egg mortality, larval mortality, and growth regulation.

[2] = test system: Diabrotica balteata (Corn Root Worm); test: Diabrotica balteata L2 larvae test on artificial diet; details: for Control, Diabrotica balteata (Corn root worm): application rate 12 ppm; for % Control at 12.5 ppm, Diabrotica balteata / % Control at 200 ppm, Diabrotica balteata: enantiomer comparison, 5 days incubation
Procedure: Diabrotica balteata (Corn Root Worm): A 24-well microtiter plate (MTP) with artificial diet was treated with test solutions at an application rate of 200 ppm (concentration in well […]) by pipetting. After drying, the MTP's were infested with L2 larvae (6-10 per well). After an incubation period of 5 days, samples were checked for larval mortality and growth regulation. Diabrotica balteata (Corn Root Worm): A 24-well microtiter plate (MTP) with artificial diet was treated with test solutions at an application rate of 12.5 ppm (concentration in well […]) by pipetting. After drying, the MTP's were infested with L2 larvae (6-10 per well). After an incubation period of 5 days, samples were checked for larval mortality and growth regulation.

[3] = test system: Tetranychus urticae (Two-Spotted Spider Mite); test: Tetranychus urticae bean leaf disc spray test; details: for Control, Tetranychus urticae (Two-spotted spider mite): application rate 12 ppm; for % Control at 12.5 ppm, Tetranychus urticae / % Control at 200 ppm, Tetranychus urticae: enantiomer comparison, checked 8 days later
Description: […] After drying, the leaf discs are infested with mite populations of mixed ages. 8 days later, discs are checked for egg mortality, larval mortality, and adult mortality. […] After drying, the leaf discs are infested with mite populations of mixed ages. 8 days later, discs are checked for egg mortality, larval mortality, and adult mortality.

[4] = test system: Plutella xylostella (Diamond Back Moth); test: Plutella xylostella L2 larvae test on artificial diet; details: enantiomer comparison, 6 days incubation
Procedure: […] After drying, the MTP's were infested with L2 larvae (7-12 per well). After an incubation period of 6 days, samples were checked for larval mortality and growth regulation. […] After drying, the MTPs were infested with L2 larvae (7-12 per well). After an incubation period of 6 days, samples were checked for larval mortality and growth regulation.

[5] = test system: Thrips tabaci (Onion Thrips); test: Thrips tabaci sunflower leaf disc spray test; details: enantiomer comparison, 7 days incubation
Procedure: Thrips tabaci (Onion Thrips): Sunflower leaf discs were placed on agar in a 24-well microtiter plate and sprayed with test solutions at an application rate of 200 ppm. After drying, the leaf discs were infested with a thrip population of mixed ages. After an incubation period of 7 days, samples were checked for mortality. Thrips tabaci (Onion Thrips): Sunflower leaf discs were placed on agar in a 24-well microtiter plate and sprayed with test solutions at an application rate of 50 ppm. After drying, the leaf discs were infested with a thrip population of mixed ages. After an incubation period of 7 days, samples were checked for mortality.

[6] = test system: Spodoptera littoralis (Egyptian Cotton Leaf Worm); test: Spodoptera littoralis (systemic) test via salad grown on treated agar; details: 5 days after infestation
Description: Spodoptera littoralis (Systemic) (Egyptian Cotton Leaf Worm) Test compounds were applied by pipette into 24 well plates and mixed with agar. Salad seeds were placed on the agar and the multi well plate is closed by another plate which contains also agar. After 7 days the roots have absorbed the compound and the salad has grown into the lid plate. The salad leafs were now cut off into the lid plate. Spodoptera eggs were pipette through a plastic stencil on a humid gel blotting paper and the plate closed with it. The samples are checked for mortality, repellent effect, feeding behavior, and growth regulation 5 days after infestation.

Compound	Control, Heliothis virescens (Tobacco budworm) ([1]; application rate 3 ppm)	Control, Diabrotica balteata (Corn root worm) [2]	Control, Tetranychus urticae (Two-spotted spider mite) [3]	Control, Heliothis virescens (Tobacco budworm) ([1]; application rate 0.8 ppm)	% Control at 12.5 ppm, Heliothis virescens [1]	% Control at 200 ppm, Heliothis virescens [1]	% Control at 12.5 ppm, Plutella xylostella [4]	% Control at 200 ppm, Plutella xylostella [4]	% Control at 12.5 ppm, Diabrotica balteata [2]	% Control at 200 ppm, Diabrotica balteata [2]	% Control at 200 ppm, Thrips tabaci [5]	% Control at 12.5 ppm, Tetranychus urticae [3]	% Control at 200 ppm, Tetranychus urticae [3]	% Control at 12.5 ppm, Spodoptera littoralis [6]	% Control at 200 ppm, Spodoptera littoralis [6]
Cc1cc(N2CCC(c3cc(Cl)cc(Cl)c3)(C(F)(F)F)C2)ccc1C(=O)NC1CSC1 (centres unmarked) [Compound A4]	80%	100%	100%	–	–	–	–	–	–	–	–	–	–	–	–
Cc1cc(N2CCC(c3cc(Cl)cc(Cl)c3)(C(F)(F)F)C2)ccc1C(=O)NCc1ccccn1 (centres unmarked) [Compound 1-4 of WO08128711, reference compound]	50%	0%	0%	0%	–	–	–	–	–	–	–	–	–	–	–
Cc1cc(N2CCC(c3cc(Cl)cc(Cl)c3)(C(F)(F)F)C2)ccc1C(=O)NC1CS(=O)(=O)C1 (centres unmarked) [Compound A5]	80%	100%	100%	–	–	–	–	–	–	–	–	–	–	–	–
Cc1cc(N2CCC(c3cc(Cl)cc(Cl)c3)(C(F)(F)F)C2)ccc1C(=O)NC1CS(=O)(=O)C1 (single isomer, unassigned) [Compound A5a]	–	–	–	–	100%	100%	100%	100%	100%	100%	90%	100%	100%	100%	100%
Cc1cc(N2CCC(c3cc(Cl)cc(Cl)c3)(C(F)(F)F)C2)ccc1C(=O)NC1CS(=O)(=O)C1 (single isomer, unassigned) [Compound A5b]	–	–	–	–	0%	100%	0%	100%	0%	0%	0%	0%	0%	0%	100%
Cc1cc(N2CCC(c3cc(Cl)cc(Cl)c3)(C(F)(F)F)C2)ccc1C(=O)NC1C[S+]([O-])C1 (centres unmarked) [Compound A1]	–	80%	100%	100%	–	–	–	–	–	–	–	–	–	–	–
